{"source": "patent US9126983B2", "about": "“Extracts from kibdelos porangium as antibacterial agents” (Merck Sharp & Dohme Corp., priority 2009, dated 2015)", "key": {"[1]": {"tested_on": "Bacillus subtilis (MB964)", "assay": "Microbroth dilution MIC, Bacillus subtilis", "type": "cell-based", "settings": "cation-adjusted Mueller Hinton broth, no visible growth; for MIC: read-out: MIC-100", "excerpt": "(§1) Selected isolates were subcultured onto either […] […] Isolates were subcultured twice before assay. […] Plates were read to no growth."}, "[2]": {"tested_on": "Haemophilus influenzae (MB4572)", "assay": "Microbroth dilution MIC, Haemophilus influenzae", "type": "cell-based", "settings": "Haemophilus test medium; for MIC: read-out: MIC-100", "excerpt": "The strain of Haemophilus influenzae is a mouse pathogen used for in vivo testing at Merck. Selected isolates were subcultured onto either […] […] Isolates were subcultured twice before assay. […] Plates were read to no growth."}, "[3]": {"tested_on": "Candida albicans (MY1055)", "assay": "Microbroth dilution MIC, Candida albicans control", "type": "cell-based", "settings": "Candida albicans (MY1055) control strain, RPMI 1640; for MIC: read-out: MIC-100", "excerpt": "as §1"}, "[4]": {"tested_on": "Clostridium difficile (ATCC 43596)", "assay": "Agar dilution MIC, Clostridium difficile ATCC 43596", "type": "cell-based", "settings": "Clostridioides difficile, ATCC43596, 48 h", "method": "(§2) Drug dilutions and drug-supplemented agar plates were prepared manually.\n(§3) The growth and test media were those recommended by the Clinical and Laboratory Standards Institute (CLSI) for growth and susceptibility testing of anaerobes. See Clinical and Laboratory Standards Institute (CLSI). Methods for Antimicrobial Susceptibility Testing of Anaerobic Bacteria; Approved Standard—Seventh Edition. CLSI document M11-A7 [ISBN1-56238-626-3]. Clinical and Laboratory Standards Institute, 940 West Valley Road, Suite 1400, Wayne, Pa. 19087-1898 USA, 2007.\n(§4) This medium is referred to as Supplemented Brucella Agar (SBA).\n(§5) The media were prepared as follows: Brucella agar was weighed and water was added to the final volume minus the volume of the hemin, vitamin K, and lysed sheep blood. The agar was dissolved by boiling. Hemin (5 μg/ml) and vitamin K (1 μg/ml) were added to the agar and it was autoclaved for 23 minutes at 121° C. The agar was allowed to cool to 50° C. and 18.5 ml was dispensed into sterile glass tubes. Immediately prior to pouring the plates 1 ml of lysed sheep blood and 0.5 ml of the appropriate drug dilution were added to the tube. The contents of the tube were gently mixed by inverting the tube, and the drug-supplemented agar was poured into a petri dish. […]\n(§6) The inocula for the MIC assay were prepared inside the Bactron II anaerobe chamber, as follows. […] The MIC was read per CLSI guidelines."}, "[5]": {"tested_on": "Clostridium difficile (ATCC 700057)", "assay": "Agar dilution MIC, Clostridium difficile ATCC 700057", "type": "cell-based", "settings": "Clostridioides difficile", "method": "as §2, §3, §4, §5, §6"}, "[6]": {"tested_on": "Staphylococcus aureus (MB2865)", "assay": "Microbroth dilution MIC, Staphylococcus aureus MB2865", "type": "cell-based", "settings": "cation-adjusted Mueller Hinton broth, no visible growth", "excerpt": "The Staphylococcus aureus strains used were obtained from the Merck Culture Collection, and are identified as MB2865 and MB5957. […] Selected isolates were subcultured onto either […] Isolates were subcultured twice before assay. […] Plates were read to no growth."}, "[7]": {"tested_on": "Enterococcus faecalis (CL8516)", "assay": "Microbroth dilution MIC, Enterococcus faecalis", "type": "cell-based", "settings": "cation-adjusted Mueller Hinton broth, no visible growth"}, "[8]": {"tested_on": "Streptococcus pneumoniae (CL2883)", "assay": "Microbroth dilution MIC, Streptococcus pneumoniae", "type": "cell-based", "settings": "cation-adjusted Mueller Hinton broth + lysed horse blood"}, "[9]": {"tested_on": "Escherichia coli envA1 tolC (MB5746)", "assay": "microbe, parasite or virus in culture", "settings": "read-out: MIC-100"}, "[10]": {"tested_on": "Escherichia coli envA1 tolC (MB5746)", "settings": "cell-wall permeable strain, cation-adjusted Mueller Hinton broth"}, "[11]": {"tested_on": "Clostridium difficile (ATCC 700057)", "settings": "published CLSI quality control range; cited from earlier work"}}, "note": "Read-outs that look alike come from different tables or passages of the source.", "data": [{"smiles": "O=C(O)c1cn(C2CC2)c2cc(N3CCNCC3)c(F)cc2c1=O", "note": "[Ciprofloxacin]", "values": [{"measurement": "MIC", "setting": "[1]", "value": 0.06, "unit": "µg/mL"}, {"measurement": "MIC", "setting": "[2]", "value": "< 0.015", "unit": "µg/mL"}, {"measurement": "MIC", "setting": "[3]", "value": "> 16", "unit": "µg/mL"}]}, {"smiles": "Cc1ncc([N+](=O)[O-])n1CCO", "note": "[Metronidazole]", "values": [{"measurement": "MIC", "setting": "[4]", "value": 0.25, "unit": "µg/mL"}, {"measurement": "MIC", "setting": "[5]; ATCC700057, Clostridium difficile (ATCC 700057), agar dilution, Supplemented Brucella Agar, anaerobic, 35° C., 48 h, read-out: MIC", "value": 0.25, "unit": "µg/mL"}]}, {"smiles": "CC[C@H]1OC(=O)[C@H](C)[C@@H](O[C@H]2C[C@@](C)(OC)[C@@H](O)[C@H](C)O2)[C@H](C)[C@@H](O[C@@H]2O[C@H](C)C[C@H](N(C)C)[C@H]2O)[C@](C)(OC)C[C@@H](C)C(=O)[C@H](C)[C@@H](O)[C@]1(C)O", "note": "[Clarithromycin]", "values": [{"measurement": "MIC", "setting": "[1]", "value": 0.06, "unit": "µg/mL"}, {"measurement": "MIC", "setting": "[6]; read-out: MIC-100", "value": 0.12, "unit": "µg/mL"}, {"measurement": "MIC", "setting": "[7]; read-out: MIC-100", "value": 2, "unit": "µg/mL"}, {"measurement": "MIC", "setting": "[8]; read-out: MIC-100", "value": 0.03, "unit": "µg/mL"}, {"measurement": "MIC", "setting": "[2]", "value": 4, "unit": "µg/mL"}, {"measurement": "MIC", "setting": "[3]", "value": "> 16", "unit": "µg/mL"}, {"measurement": "MIC", "setting": "[9]", "value": 0.12, "unit": "µg/mL"}]}, {"smiles": "CC1(C)S[C@@H]2[C@H](NC(=O)Cc3ccccc3)C(=O)N2[C@H]1C(=O)O", "note": "[Penicillin G]", "values": [{"measurement": "MIC-100", "setting": "[1]", "value": "<0.06", "unit": "µg/mL"}, {"measurement": "MIC-100", "setting": "[6]", "value": "<0.06", "unit": "µg/mL"}, {"measurement": "MIC-100", "setting": "[7]", "value": 0.5, "unit": "µg/mL"}, {"measurement": "MIC-100", "setting": "[8]", "value": "<0.06", "unit": "µg/mL"}, {"measurement": "MIC-100", "setting": "[2]", "value": 0.25, "unit": "µg/mL"}, {"measurement": "MIC-100", "setting": "[3]", "value": ">64", "unit": "µg/mL"}, {"measurement": "MIC-100", "setting": "[10]", "value": 8, "unit": "µg/mL"}]}, {"smiles": "CN[C@H](CC(C)C)C(=O)N[C@H]1C(=O)N[C@@H](CC(N)=O)C(=O)N[C@H]2C(=O)N[C@H]3C(=O)N[C@H](C(=O)N[C@H](C(=O)O)c4cc(O)cc(O)c4-c4cc3ccc4O)[C@H](O)c3ccc(c(Cl)c3)Oc3cc2cc(c3O[C@@H]2O[C@H](CO)[C@@H](O)[C@H](O)[C@H]2O[C@H]2C[C@](C)(N)[C@H](O)[C@H](C)O2)Oc2ccc(cc2Cl)[C@H]1O", "note": "[Vancomycin, vancomycin]", "values": [{"measurement": "MIC", "setting": "[4]", "value": 1, "unit": "µg/mL"}, {"measurement": "MIC", "setting": "[5]; ATCC700057, 48 h", "value": 2, "unit": "µg/mL"}, {"measurement": "CLSI quality control range (MIC)", "setting": "[11]", "value": "2 (0.5-4)^1 μg/mL"}]}]}
